Reference: patent publication US6482586B1 (priority 1996, dated 2002)
Where two headings read alike, the source gives them in different places.

Columns and labels:
[1] = tested on: glycosphingolipid synthesis; assay: Inhibition of glycolipid synthesis; type: cell-based
Experimental: (§1) PPMP(1-phenyl-2-hexadecanoylamino-3-morpholino-1-propanol, Matreya Inc. , Pleasant Gap, Pa.) is a potent inhibitor of glucosylceramide synthesis (36) and thereby prevents the synthesis of most glycolipids. Experiments extablished that 27 μM PPMP was able to inhibit glycosphingolipid synthesis without inducing cell death. XF-498 astrocytoma and vero cells were then incubated at 37° C. with 27 μM PPMP in the presence and absence of 2 mM butyrate for 6-7 days.

[2] = tested on: XF-498 cells; assay: Cell sensitization to VT by butyrate treatment; type: cell-based, human; conditions: for effect on XF-498 cell sensitivity to VT1 (in words): cells cultured in 2 mM propionate or capronate
Experimental: Semiconfluent cells in microtiter plates were incubated in triplicates with ten fold VT binding domain dilutions and remaining cells after 72 hr were quantitated by staining with 0.1% crystal violet and measuring the optical density at 570 nm using a microtiter plate reader (31).
(§2) XF-498 astrocytoma, ovarian tumour and vero cell lines were cultured in media containing 2 mM sodium butyrate (or propionate or capronate for astrocytoma cells).

[3] = tested on: XF-498 cells; assay: Morphology and growth of treated XF-498 cells; type: cell-based, human; conditions: for effect on morphology of XF-498 cells: compound alone in culture medium
Experimental: as §2, §1

[4] = tested on: Gb3 in XF-498 cells; type: cell-based, human
Experimental: After trypsinization, cells (˜1×10^6) were washed with PBS three times, resuspended in a minimum volume, and extracted with 20 volumes of chloroform/methanol (C/M) 2:1 by vol. The extract was partitioned against water and the lower phase partitioned again against theoretical upper phase. The combined lower phase was then evaporated, saponified with 1 N NaOH in methanol and glycolipids reextracted as above . The dried lower phase was dissolved in CM 98:2 and separated by silica chromatography(32). The column was washed extensively with chloroform and glycolipid eluted in acetone/methanol (9:1 by vol.). Gb3 present was detected by tlc overlay binding with VT binding domain1 (16).
Aliquots of the glycolipid extract of human tumor samples or of tumor cell lines were separated by TLC {chloroform, methanol, water-65:25:4 (v/v/v)}. The plates were dried and blocked with 1% gelatin in water at 37° C. overnight. They were then washed three times with 50 mM TBS for 5 min and incubated with 0.1 μg/ml toxin for 1 hour at R.T. After further washing with TBS, plates were incubated with mouse monoclonal anti-VT binding domain1 antibody(33) (2 μg/ml) for VT binding domain1 followed by peroxidase-conjugated goat anti-mouse antibody . Finally, the plates were washed with TBS, and toxin binding was visualized with 4-chloro-1-naphthol peroxidase substrate. A similar plate was prepared and sprayed with orcinol for comparison of glycolipid content.

[5] = tested on: XF-498 cells; type: cell-based, human
[6] = tested on: Gb3 of XF-498 cells; assay: HPLC analysis of Gb3 fatty acid composition; type: cell-based, human; conditions: butyrate treated XF-498
[7] = XF-498 cells after treatment, VT1 TLC overlay

| SMILES | concentration able to inhibit glycosphingolipid synthesis without inducing cell death [1] [µM] | effect on butyrate induced VT1 sensitivity of XF-498 cells ([2]; 27 μM PPMP with 2 mM butyrate, not shown) | effect on butyrate-induced morphological changes ([3]; PPMP in presence of butyrate) | effect on morphology of XF-498 cells [3] | effect on XF-498 cell sensitivity to VT1 (in words) [2] | change in slower migrating Gb3 band [4] | effect on intracellular routing of VT1 B [5] | increase in XF-498 cell sensitivity to VT1 ([2]; cells cultured in 2 mM sodium butyrate) [fold] | change in slower migrating Gb3 band [4, 7] | fatty acid content of the slow migrating Gb3 species [6] |
| --- | --- | --- | --- | --- | --- | --- | --- | --- | --- | --- |
| CCCCCCCCCCCCCCCC(=O)NC(CN1CCOCC1)C(O)c1ccccc1 (stereo not drawn) [PPMP, 1-phenyl-2-hexadecanoylamino-3-morpholino-1-propanol] | 27 | prevented | prevented the butyrate-induced morphological changes | no effect | – | – | – | – | – | – |
| CCCCCC(=O)O [capronate] | – | – | – | no effect | no effect | no effect | – | – | – | – |
| CCCC(=O)[O-].[Na+] [butyrate, sodium butyrate] | – | – | – | profound effect | – | – | marked change in the intracellular routing | 5000 | dramatic, selective increase | markedly increased C16 and decreased C24 fatty acid content |
| CCC(=O)O [propionate] | – | – | – | similar, but less significant, morphological change | increased to a lesser extent | – | – | – | selectively increased, but to a lesser extent | – |
